Consider 15 molecules from patent US9862717B2 (Merck Patent GmbH, priority 2014, dated 2018).

What is called IC50 is the concentration that inhibits the measured activity by half.

SMILES strings stand for the structures.

The assay deals with T1, CDK8/CycC (Homo sapiens, UniProt P49336).
T1 construct: purchased Invitrogen PV4402
T1 sequence (P49336 whole entry): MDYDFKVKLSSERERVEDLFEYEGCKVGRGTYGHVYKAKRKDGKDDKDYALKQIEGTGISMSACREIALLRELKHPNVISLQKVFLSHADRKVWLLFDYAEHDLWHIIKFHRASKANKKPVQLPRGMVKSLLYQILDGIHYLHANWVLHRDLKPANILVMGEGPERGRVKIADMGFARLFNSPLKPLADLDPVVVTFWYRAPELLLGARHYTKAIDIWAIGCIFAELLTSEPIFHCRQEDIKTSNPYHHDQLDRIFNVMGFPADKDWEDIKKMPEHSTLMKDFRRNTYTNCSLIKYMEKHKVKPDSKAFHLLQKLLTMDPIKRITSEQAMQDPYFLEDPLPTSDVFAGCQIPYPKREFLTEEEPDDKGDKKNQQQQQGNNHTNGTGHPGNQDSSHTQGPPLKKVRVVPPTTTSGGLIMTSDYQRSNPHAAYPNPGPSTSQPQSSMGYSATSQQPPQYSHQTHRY
T1 sequence (P24863 whole entry partner): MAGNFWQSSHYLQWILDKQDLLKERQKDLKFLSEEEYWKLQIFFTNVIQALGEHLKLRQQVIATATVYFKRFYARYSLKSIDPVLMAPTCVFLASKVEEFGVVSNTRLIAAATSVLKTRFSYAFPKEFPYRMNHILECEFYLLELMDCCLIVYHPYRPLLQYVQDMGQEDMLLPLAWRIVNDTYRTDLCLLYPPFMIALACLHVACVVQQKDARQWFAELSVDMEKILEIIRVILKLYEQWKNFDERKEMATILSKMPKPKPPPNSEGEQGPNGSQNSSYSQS
As to the kind of experiment: FRET based Lanthascreen binding competition assay for CDK8 inhibitory activity. Particulars: CDK8 co-expressed with CycC; class symbols; read-out: IC50. In outline: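 Competition binding of a dye-labeled ATP-competitive Alexa647 probe to CDK8 co-expressed with CycC, Eu-labeled via biotinylated anti-His antibody/streptavidin.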
A general note: Time-resolved FRET reads energy transfer from a long-lived donor to a nearby acceptor.
Take `Nc1n[nH]c2ccc(C(=O)N3CCC[C@H]3c3ccc(C(F)(F)F)cc3)cc12` [compound 208, (3-Amino-1H-indazol-5-yl)-[(S)-2-(4-trifluoromethyl-phenyl)-pyrrolidin-1-yl]-methanone]: the IC50 was in the range of 10 to 100 nM.
For `Nc1n[nH]c2ccc(C(=O)N3CCC[C@@H]3c3ccc(C(F)(F)F)cc3)cc12` [compound 209, (3-Amino-1H-indazol-5-yl)-[(R)-2-(4-trifluoromethyl-phenyl)-pyrrolidin-1-yl]-methanone], the IC50 lay within 100 to 1000 nM.
The value for `Nc1n[nH]c2ccc(C(=O)N3CCCCCC3c3ccc(Cl)cc3)cc12` (stereo not drawn) [compound 106, (3-Amino-1H-indazol-5-yl)-[2-(4-chloro-phenyl)-azepan-1-yl]-methanone] was 100 to 1000 nM; that for `Nc1n[nH]c2ccc(C(=O)N3CCC3c3ccc(Cl)cc3)cc12` (stereo not drawn) [compound 104, (3-Amino-1H-indazol-5-yl)-[2-(4-chloro-phenyl)-azetidin-1-yl]-methanone] was 10 to 100 nM; that for `Cc1n[nH]c2ncc(C(=O)N3CCCCC3Cc3ccccc3)cc12` (stereo not drawn) [compound 19, (2-Benzyl-piperidin-1-yl)-(3-methyl-1H-pyrazolo[3,4-b]pyridin-5-yl)-methanone] was 100 to 1000 nM.
The figure for `Cc1n[nH]c2ncc(C(=O)N3CCC[C@H]3c3ccncc3)cc12` [compound 122, (3-Methyl-1H-pyrazolo[3,4-b]pyridin-5-yl)-((S)-2-pyridin-4-yl-pyrrolidin-1-yl)-methanone] is 100 to 1000 nM; for `Cc1n[nH]c2ncc(C(=O)N3CCC[C@@H]3c3ccc(Cl)c(F)c3)cc12` [compound 228, [(R)-2-(4-Chloro-3-fluoro-phenyl)-pyrrolidin-1-yl]-(3-methyl-1H-pyrazolo[3,4-b]pyridin-5-yl)-methanone] it is 1000 to 10000 nM.
The value for `Cc1n[nH]c2ncc(C(=O)N3CCCC3c3ccc(C(F)(F)F)cc3)cc12` (stereo not drawn) [compound 63, (3-Methyl-1H-pyrazolo[3,4-b]pyridin-5-yl)-[2-(4-trifluoromethyl-phenyl)-pyrrolidin-1-yl]-methanone] was less than 10 nM.
With `Cc1n[nH]c2ncc(C(=O)N3CCC(O)(c4ccc(Cl)cc4)C3)cc12` (stereo not drawn) [compound 237, [3-(4-Chloro-phenyl)-3-hydroxy-pyrrolidin-1-yl]-(3-methyl-1H-pyrazolo[3,4-b]pyridin-5-yl)-methanone], the IC50 is 100 to 1000 nM.
Take `CCCc1n[nH]c2ccc(C(=O)N3CCC[C@@H]3c3ccc(Br)cc3)cc12` [compound 6, [(R)-2-(4-bromo-phenyl)-pyrrolidin-1-yl]-(3-propyl-1H-indazol-5-yl)-methanone]: the IC50 is 100 to 1000 nM.
On to `Cc1n[nH]c2ncc(C(=O)N3CCC[C@@H]3c3ccc4cn[nH]c4c3)cc12` [compound 229, [(R)-2-(1H-Indazol-6-yl)-pyrrolidin-1-yl]-(3-methyl-1H-pyrazolo[3,4-b]pyridin-5-yl)-methanone], for which the IC50 is 1000 to 10000 nM.
As to `Cc1n[nH]c2ncc(C(=O)N3CCC[C@H]3c3ccccc3)cc12` [compound 39, (3-Methyl-1H-pyrazolo[3,4-b]pyridin-5-yl)-((S)-2-phenyl-pyrrolidin-1-yl)-methanone], the IC50 was less than 10 nM.
As to `O=C(c1ccc2[nH]nc(Cl)c2c1)N1CCC[C@H]1c1ccc(Cl)cc1` [compound 217, (3-Chloro-1H-indazol-5-yl)-[(S)-2-(4-chloro-phenyl)-pyrrolidin-1-yl]-methanone], the IC50 fell in the range of 10 to 100 nM.
As for `Cc1ccc([C@H]2CCCN2C(=O)c2cnc3[nH]nc(C)c3c2)cc1` [compound 137, (3-Methyl-1H-pyrazolo[3,4-b]pyridin-5-yl)-((R)-2-p-tolyl-pyrrolidin-1-yl)-methanone], the IC50 was in the range of 1000 to 10000 nM.
The figure for `CC(C)c1ccc([C@@H]2CCCN2C(=O)c2ccc3[nH]nc(N)c3c2)cc1` [compound 194, (3-Amino-1H-indazol-5-yl)-[(S)-2-(4-isopropyl-phenyl)-pyrrolidin-1-yl]-methanone] is less than 10 nM.
